This passage reports EC50 results from publication PMC8325370 (Proceedings of the National Academy of Sciences of the …, 2021).

The target of this assay is T1, homomeric A2 channels (wt CNGA2) (Rattus norvegicus, UniProt Q00195).
T1 sequence (Q00195 1-664): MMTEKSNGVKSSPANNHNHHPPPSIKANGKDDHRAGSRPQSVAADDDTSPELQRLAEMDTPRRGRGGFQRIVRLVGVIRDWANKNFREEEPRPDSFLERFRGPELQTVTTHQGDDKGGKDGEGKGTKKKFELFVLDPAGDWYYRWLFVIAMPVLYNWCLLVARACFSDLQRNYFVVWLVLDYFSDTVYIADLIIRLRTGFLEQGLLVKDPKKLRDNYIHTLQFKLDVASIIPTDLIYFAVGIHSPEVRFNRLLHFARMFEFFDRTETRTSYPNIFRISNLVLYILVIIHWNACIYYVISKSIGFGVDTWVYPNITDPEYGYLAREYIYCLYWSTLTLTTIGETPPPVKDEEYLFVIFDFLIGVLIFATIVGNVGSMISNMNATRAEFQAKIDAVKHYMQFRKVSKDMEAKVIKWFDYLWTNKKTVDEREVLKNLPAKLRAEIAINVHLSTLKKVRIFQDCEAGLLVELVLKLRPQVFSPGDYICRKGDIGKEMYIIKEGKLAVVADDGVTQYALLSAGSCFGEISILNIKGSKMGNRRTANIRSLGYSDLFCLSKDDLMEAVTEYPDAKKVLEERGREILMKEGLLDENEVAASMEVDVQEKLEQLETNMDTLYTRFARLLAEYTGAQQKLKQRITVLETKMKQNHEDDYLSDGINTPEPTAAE
The assay can be described thus: inside-out patch clamp, macroscopic current. The format is biochemical. As to conditions: agonist; +100 mV, 150 mM KCl, pH 7.4; Xenopus oocytes.

With `Nc1nc2c(ncn2[C@@H]2O[C@@H]3COP(=O)(O)O[C@H]3[C@H]2O)c(=O)[nH]1` [cGMP], the EC50 result was “concentration–activation relationships to homomeric A2 channels”.
